In patent US6080396A, “Anthracycline compound derivative and pharmaceutical preparation containing the same” (Japan Science and Technology Corporation, priority 1995, dated 2000):
Where a name gives a salt, the structure may show the parent alone.

Tests used:
[1] = Drug concentration in tumor by radioactivity (Application Example 2); format: in vivo, CDF1 female mouse; conditions: mouse, iv, i.v., total of adriamycin and adriamycin dimer, 14C, read-out: % of dose/g (tumor)
[2] = tested on: mouse Colon 26 adenocarcinoma; assay: Antitumor activity on mouse Colon 26 adenocarcinoma (Application Example 1); format: in vivo; conditions: for Tumor-disappeared mice: i.v., every 4th day, three times
Method: (§1) When the volume of the tumor reached around 100 mm^3, the block copolymer-drug complex pharmaceutical preparation synthesized in Example 3, 4 or 5 or adriamycin hydrochloride was intravenously administered once a day every 4th day in total of three times (indicated by arrows in the drawings) to examine their antitumor effects. […] Each dose was determined as the amount of adriamycin of the peak 1 of the HPLC chromatogram. The antitumor effects of each drug were estimated based on the tumor growth curve, the number of mice in which the tumor disappeared and the chemotherapeutic index. The results are shown in Tables 1 and 2 and FIGS. 16 and 17.

[3] = Drug concentration in blood plasma by radioactivity (Application Example 2); conditions: for % of dose/ml (blood plasma): i.v., total of adriamycin and adriamycin dimer, 14C
Method: Colon 26 adenocarcinoma cells were transplanted subcutaneously in the subaxillary region of each CDF1 female mouse, to which the block copolymer-drug complex pharmaceutical preparation prepared in Example 6 or 7 or ^14 C-labeled adriamycin hydrochloride was intravenously administered 12 days after transplanting. Each drug was used by diluting it in physiological saline prior to its use. After 15 minutes and 1, 4, 24 and 48 hours of the administration, blood samples were collected and various organs were excised. The drug concentrations in the blood plasma and each internal organ were determined by measuring radioactivity thereof using a liquid scintillation counter. In this test, both adriamycin and adriamycin dimer are labeled with ^14 C.

[4] = tested on: mouse Colon 26 adenocarcinoma; assay: Antitumor activity on mouse Colon 26 adenocarcinoma (Application Example 3); format: in vivo; conditions: i.v., every 4th day, three times
Method: In the case of the pharmaceutical preparation of Example 8, its effect obtained from the only first administration was also examined. […] Each dose was determined as the amount of adriamycin of the peak 1 of the HPLC chromatogram. The antitumor effects of each drug were estimated based on the tumor growth curve and the number of mice in which the tumor disappeared. The results are shown in Table 6 and FIGS. 25, 26 and 27.

[5] = LD50 for comparison of chemotherapeutic index (Table 2); conditions: mouse, in vivo, iv
Method: as §1

[6] = Drug concentration in heart by radioactivity (Application Example 2); format: in vivo, CDF1 female mouse; conditions: mouse, iv, i.v., total of adriamycin and adriamycin dimer, 14C, read-out: % of dose/g (heart)

COc1cccc2c1C(=O)c1c(O)c3c(c(O)c1C2=O)C[C@@](O)(C(=O)CO)C[C@@H]3O[C@H]1C[C@H](N)[C@H](O)[C@H](C)O1 [Adriamycin hydrochloride, adriamycin hydrochloride]
tissue uptake at 0.25 h ([1]; 15 minutes): 2.3 %ID/g
tissue uptake at 1 h ([1]; 1 hour): 2.4 %ID/g
tissue uptake at 4 h ([1]; 4 hours): 1.7 %ID/g
tissue uptake at 24 h ([1]; 24 hours): 1.3 %ID/g
tissue uptake at 48 h ([1]; 48 hours): 1 %ID/g
Tumor-disappeared mice ([2]; 5 mg/kg): 0/5
Tumor-disappeared mice ([2]; 10 mg/kg): 2/5
Min T/C42 (minimum dose when T/C (%) becomes 42% or less on the 14th day after the initial administration) ([2]; 14th day after initial administration): 5.95
C. index (chemotherapeutic index: LD50/(Min T/C42)) ([2]; LD50 /(Min T/C42)): 2.52
% of dose/ml (blood plasma) ([3]; 15 minutes): 0.47 % of dose/ml
% of dose/ml (blood plasma) ([3]; 1 hour): 0.29 % of dose/ml
% of dose/ml (blood plasma) ([3]; 4 hours): 0.36 % of dose/ml
% of dose/ml (blood plasma) ([3]; 24 hours): 0.10 % of dose/ml
% of dose/ml (blood plasma) ([3]; 48 hours): 0.07 % of dose/ml
drug retention in blood plasma ([3]; mouse, in vivo): quickly disappeared from blood plasma
Tumor-disappeared mice ([4]; 5 mg/kg): 0/5
Tumor-disappeared mice ([4]; 10 mg/kg): 2/5
LD50 [5]: 15 mg/kg
tissue uptake at 0.25 h ([6]; 15 minutes): 10.5 %ID/g
tissue uptake at 1 h ([6]; 1 hour): 7 %ID/g
tissue uptake at 4 h ([6]; 4 hours): 4.6 %ID/g
tissue uptake at 24 h ([6]; 24 hours): 1.1 %ID/g
tissue uptake at 48 h ([6]; 48 hours): 0.5 %ID/g
